According to patent publication US8008298B2, “Pyrrolopyrazine kinase inhibitors” (Roche Palo Alto, priority 2008, dated 2011):
Structures can show the parent of a compound that is named as a salt.

Row | melting point [°C] | Compound
1 | 252 to 254 | CNC(=O)C1(C)CCN(c2cccc(-c3cnc4[nH]cc(C(=O)C(C)(C)C)c4n3)c2)C1 (centres unmarked) [Example 210, 1-{3-[7-(2,2-Dimethyl-propionyl)-5H-pyrrolo[2,3-b]pyrazin-2-yl]-phenyl}-3-methyl-pyrrolidine-3-carboxylic acid methylamide]
2 | 272 to 274 | CN(C)c1ccc(-c2cnc3[nH]cc(C(=O)C4(C)CCCCC4)c3n2)cc1 [Example 158, [2-(4-Dimethylamino-phenyl)-5H-pyrrolo[2,3-b]pyrazin-7-yl]-(1-methyl-cyclohexyl)-methanone]
3 | 243 to 245.4 | CC1(C(=O)c2c[nH]c3ncc(-c4cccc(N5CCCC5)c4)nc23)CCCCC1 [Example 36, (1-Methyl-cyclohexyl)-[2-(3-pyrrolidin-1-yl-phenyl)-5H-pyrrolo[2,3-b]pyrazin-7-yl]-methanone]
4 | 229 to 230 | COCC(=O)c1c[nH]c2ncc(-c3cc(OC)c(OC)c(OC)c3)nc12 [Example 132, 2-Methoxy-1-[2-(3,4,5-trimethoxy-phenyl)-5H-pyrrolo[2,3-b]pyrazin-7-yl]-ethanone]
5 | 287 to 288 | CC(C)(C)C(=O)c1c[nH]c2ncc(-c3cccc(-c4cnc[nH]4)c3)nc12 [Example I-346, 1-{2-[3-(3H-Imidazol-4-yl)-phenyl]-5H-pyrrolo[2,3-b]pyrazin-7-yl}-2,2-dimethyl-propan-1-one]
6 | 206.9 to 207.7 | COc1cc(OC)cc(-c2cnc3[nH]cc(C(=O)C(C)(C)C)c3n2)c1 [Example 146, 1-[2-(3,5-Dimethoxy-phenyl)-5H-pyrrolo[2,3-b]pyrazin-7-yl]-2,2-dimethyl-propan-1-one]
7 | 197 to 198 | CC(C)c1cccc(-c2cnc3[nH]cc(C(=O)C(C)(C)C)c3n2)c1 [Example I-337, 1-[2-(3-Isopropyl-phenyl)-5H-pyrrolo[2,3-b]pyrazin-7-yl]-2,2-dimethyl-propan-1-one]
8 | 193 to 194 | COc1ccc(-c2cnc3[nH]cc(C(=O)NC4CCN(C)C4)c3n2)cc1OC (centres unmarked) [Example 25, 2-(3,4-Dimethoxy-phenyl)-5H-pyrrolo[2,3-b]pyrazine-7-carboxylic acid (1-methyl-pyrrolidin-3-yl)-amide]
9 | 273 to 275 | CNc1ccc(-c2cnc3[nH]cc(C(=O)C4(C)CCCCC4)c3n2)cc1 [Example 171, [2-(4-Methylamino-phenyl)-5H-pyrrolo[2,3-b]pyrazin-7-yl]-(1-methyl-cyclohexyl)-methanone]
10 | 228 to 230 | CC(C)(C)C(=O)c1c[nH]c2ncc(-c3cccc(NC4=NCCN4)c3)nc12 [Example 236, 1-{2-[3-(4,5-Dihydro-1H-imidazol-2-ylamino)-phenyl]-5H-pyrrolo[2,3-b]pyrazin-7-yl}-2,2-dimethyl-propan-1-one]
11 | 230 to 232 | CC(C)(C)C(=O)c1c[nH]c2ncc(-c3cc(OCCS(C)(=O)=O)cc(N4CCCC4)c3)nc12 [Example 267, 1-{2-[3-(2-Methanesulfonyl-ethoxy)-5-pyrrolidin-1-yl-phenyl]-5H-pyrrolo[2,3-b]pyrazin-7-yl}-2,2-dimethyl-propan-1-one]
12 | 233 to 235 | CC1(C(=O)c2c[nH]c3ncc(-c4ccc(N5CCOCC5)cc4)nc23)CCCCC1 [Example 172, (1-Methyl-cyclohexyl)-[2-(4-morpholin-4-yl-phenyl)-5H-pyrrolo[2,3-b]pyrazin-7-yl]-methanone]
13 | 216 to 222 | CC(C)(C)C(=O)c1c[nH]c2ncc(-c3cccc(N4CCNCC4)c3)nc12 [Example I-46, 2,2-Dimethyl-1-[2-(3-piperazin-1-yl-phenyl)-5H-pyrrolo[2,3-b]pyrazin-7-yl]-propan-1-one]
14 | 228 to 230 | COc1cc(-c2cnc3[nH]cc(C(=O)N4CCC(C)(C)C4)c3n2)cc(OC)c1OC [Example I-395, (3,3-Dimethyl-pyrrolidin-1-yl)-[2-(3,4,5-trimethoxy-phenyl)-5H-pyrrolo[2,3-b]pyrazin-7-yl]-methanone]
15 | 282 to 283 | CC(C)(C)C(=O)c1c[nH]c2ncc(-c3ccccc3O)nc12 [Example 152, 1-[2-(2-Hydroxy-phenyl)-5H-pyrrolo[2,3-b]pyrazin-7-yl]-2,2-dimethyl-propan-1-one]
16 | 229 to 230 | COCOc1cc(-c2cnc3[nH]cc(C(=O)C(C)(C)C)c3n2)cc(N2CCCC2)c1 [Example I-151, 1-[2-(3-Methoxymethoxy-5-pyrrolidin-1-yl-phenyl)-5H-pyrrolo[2,3-b]pyrazin-7-yl]-2,2-dimethyl-propan-1-one]
17 | 245 to 247 | CNS(=O)(=O)c1cccc(-c2cnc3[nH]cc(C(=O)C(C)(C)C)c3n2)c1 [Example 141, 3-[7-(2,2-Dimethyl-propionyl)-5H-pyrrolo[2,3-b]pyrazin-2-yl]-N-methyl-benzenesulfonamide]
18 | 260 to 262 | CC(C)(C)C(=O)c1c[nH]c2ncc(-c3cccc(N4CC5(COC5)C4)c3)nc12 [Example 282, 2,2-dimethyl-1-{2-[3-(2-oxa-6-aza-spiro[3.3]hept-6-yl)-phenyl]-5H-pyrrolo[2,3-b]pyrazin-7-yl}-propan-1-one]

Row | melting point [°C] | Compound
19 | 239 to 241 | CC(C)(C)C(=O)c1c[nH]c2ncc(-c3cccc(N)c3)nc12 [Example 226, 1-[2-(3-Amino-phenyl)-5H-pyrrolo[2,3-b]pyrazin-7-yl]-2,2-dimethyl-propan-1-one]
20 | 232 to 233 | CCNC(=O)c1cccc(-c2cnc3[nH]cc(C(=O)C(C)(C)C)c3n2)c1 [Example I-365, 3-[7-(2,2-Dimethyl-propionyl)-5H-pyrrolo[2,3-b]pyrazin-2-yl]-N-ethyl-benzamide]
21 | 285 to 286 | CC(C)(C)C(=O)c1c[nH]c2ncc(-c3cccc(NS(=O)(=O)c4ccc(N)cc4)c3)nc12 [Example 235, 4-Amino-N-{3-[7-(2,2-dimethyl-propionyl)-5H-pyrrolo[2,3-b]pyrazin-2-yl]-phenyl}-benzenesulfonamide]
22 | 189 to 191 | CCNc1cccc(-c2cnc3[nH]cc(C(=O)C(C)(C)C)c3n2)c1 [Example 227, 1-[2-(3-Ethylamino-phenyl)-5H-pyrrolo[2,3-b]pyrazin-7-yl]-2,2-dimethyl-propan-1-one]
23 | 274 to 276 | CC(=O)Nc1ccc(S(=O)(=O)Nc2cc(-c3cnc4[nH]cc(C(=O)C(C)(C)C)c4n3)ccc2C)cc1 [Example I-415, N-(4-{5-[7-(2,2-Dimethyl-propionyl)-5H-pyrrolo[2,3-b]pyrazin-2-yl]-2-methyl-phenylsulfamoyl}-phenyl)-acetamide]
24 | 214 to 216 | CC1(C(=O)c2c[nH]c3ncc(-c4ccc(N5CCNCC5)cc4)nc23)CCCCC1 [Example 185, (1-Methyl-cyclohexyl)-[2-(4-piperazin-1-yl-phenyl)-5H-pyrrolo[2,3-b]pyrazin-7-yl]-methanone]
25 | 80 to 83 | CC1(C(=O)c2c[nH]c3ncc(-c4cccc(CCCO)c4)nc23)CCCCC1 [Example 156, {2-[3-(3-Hydroxy-propyl)-phenyl]-5H-pyrrolo[2,3-b]pyrazin-7-yl}-(1-methyl-cyclohexyl)-methanone]
26 | 188 to 190 | CC(C)(C)C(=O)c1c[nH]c2ncc(-c3cccc(C4=CCCCC4)c3)nc12 [Example I-352, 1-[2-(3-Cyclohex-1-enyl-phenyl)-5H-pyrrolo[2,3-b]pyrazin-7-yl]-2,2-dimethyl-propan-1-one]
27 | 200 to 202 | CC1(C(=O)c2c[nH]c3ncc(-c4cccc(N5CCCC5)c4)nc23)CC[C@@H]2CCC[C@@H]21 (stereo partly drawn) [Example 215, ((3aS,6aS)-1-Methyl-octahydro-pentalen-1-yl)-[2-(3-pyrrolidin-1-yl-phenyl)-5H-pyrrolo[2,3-b]pyrazin-7-yl]-methanone]
28 | 215 to 217 | CC1(C(=O)c2c[nH]c3ncc(-c4cccc(N5CCCC5=O)c4)nc23)CCCCC1 [Example 283, 1-{3-[7-(1-methyl-cyclohexanecarbonyl)-5H-pyrrolo[2,3-b]pyrazin-2-yl]-phenyl}-pyrrolidin-2-one]
29 | 238 to 239 | CC(=O)N1CCN(c2cccc(-c3cnc4[nH]cc(C(=O)C(C)(C)C)c4n3)c2)CC1 [Example I-100, 1-{2-[3-(4-Acetyl-piperazin-1-yl)-phenyl]-5H-pyrrolo[2,3-b]pyrazin-7-yl}-2,2-dimethyl-propan-1-one]
30 | 215.2 to 215.8 | CC(C)(C)OC(=O)N1CCN(c2cccc(-c3cnc4[nH]cc(C(=O)C(C)(C)C)c4n3)c2)CC1 [Example I-44, 4-{3-[7-(2,2-Dimethyl-propionyl)-5H-pyrrolo[2,3-b]pyrazin-2-yl]-phenyl}-piperazine-1-carboxylic acid tert-butyl ester]
31 | 229 to 231 | COc1cc(-c2cnc3[nH]cc(C(=O)C4(C)CCCC(C)C4)c3n2)cc(OC)c1OC (centres unmarked) [Example 169, (1,3-Dimethyl-cyclohexyl)-[2-(3,4,5-trimethoxy-phenyl)-5H-pyrrolo[2,3-b]pyrazin-7-yl]-methanone]
32 | 199 to 200 | COc1cc(-c2cnc3[nH]cc(C(=O)NCC(C)OC)c3n2)cc(OC)c1OC (centres unmarked) (as salt: hydrochloride) [Example 24, 2-(3,4,5-Trimethoxy-phenyl)-5H-pyrrolo[2,3-b]pyrazine-7-carboxylic acid (2-methoxy-propyl)-amide]
33 | 234 to 236 | CC1(C(=O)c2c[nH]c3ncc(-c4ccc(N5CCCCC5)cc4)nc23)CCCCC1 [Example 174, (1-Methyl-cyclohexyl)-[2-(4-piperidin-1-yl-phenyl)-5H-pyrrolo[2,3-b]pyrazin-7-yl]-methanone]
34 | 242 to 243 | CC1(C(=O)c2c[nH]c3ncc(-c4cccc(N5CCCC5)c4)nc23)CCCC1 [Example 167, (1-Methyl-cyclopentyl)-[2-(3-pyrrolidin-1-yl-phenyl)-5H-pyrrolo[2,3-b]pyrazin-7-yl]-methanone]
35 | 278 to 284.9 | CC(=O)N1CCN(c2ccc(-c3cnc4[nH]cc(C(=O)C5(C)CCCCC5)c4n3)cc2)CC1 [Example 186, 1-(4-{4-[7-(1-Methyl-cyclohexanecarbonyl)-5H-pyrrolo[2,3-b]pyrazin-2-yl]-phenyl}-piperazin-1-yl)-ethanone]
